Numbered stars: 1 amine (or outer) side, 2 acyl side, 3 side chain; on linkers, the order of the positions; unused ones are H or OH. Bridge positions count the residues as written; N and C are the ends. Square brackets hold non-standard residues; d marks the D form. Peptide text beside a SMILES is read from it. Achc(trans-4) = O=C([C@H]1CC[C@H](N[*:1])CC1)[*:2]; Dab = NCC[C@H](N)C(=O)O
Experiments:
Assay type in all cases: cell-based
[1] = system: Klebsiella pneumoniae; experiment: MIC, compound in combination with a second agent (broth microdilution)
Method in brief: (§1)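 MIC = combined concentration of test compound plus partner agent, mixed at equal mass (1:1 w/w, salt form as used). Up to four strains per species; colonies adjusted to 0.5 McFarland. Run in duplicate; >2-fold disagreement invalidates the run.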

[2] = system: Acinetobacter baumannii; experiment: as above
Method in brief: as §1

[3] = system: Escherichia coli; experiment: as above
Method in brief: as §1

[4] = system: Pseudomonas aeruginosa; experiment: as above
Method in brief: as §1

[5] = system: Klebsiella pneumoniae; experiment: MIC, sole activity (no second agent)
Method in brief: (§2)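 First, isolated colonies grown 18-24 hours on Mueller-Hinton agar were suspended to 0.5 McFarland; next, up to four strains per pathogen were tested in duplicate in cation-adjusted MHB; finally, the lower concordant value or modal repeat value was reported against Polymyxin B.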

[6] = system: Acinetobacter baumannii; experiment: MIC, sole activity (no second agent); details: Second Agent none (Table 7B, by row order)
Method in brief: as §2

[7] = system: Escherichia coli; experiment: MIC, sole activity (no second agent)
Method in brief: as §2

[8] = system: Pseudomonas aeruginosa; experiment: MIC, sole activity (no second agent)
Method in brief: as §2

[9] = 1:1 combination with Ciprofloxacin (by row order), total drug concentration
[10] = 1:1 combination with Ciprofloxacin, total drug concentration
[11] = 1:1 combination with Tigecycline, total drug concentration
[12] = 1:1 combination with Vancomycin, total drug concentration
[13] = Second Agent none (Table 7B, by row order)

MIC K. pneumoniae ATCC 4352 ([1]; 1:1 (wt:wt) combination with Rifampicin, MIC = total drug concentration, strain ATCC 4352): 0.125 micrograms/mL
MIC K. pneumoniae ATCC-BAA-2146 ([1]; 1:1 (wt:wt) combination with Rifampicin, MIC = total drug concentration, strain ATCC-BAA-2146): 0.125 micrograms/mL
MIC K. pneumoniae CCUG-59348 ([1]; 1:1 (wt:wt) combination with Rifampicin, MIC = total drug concentration, strain CCUG-59348): 2 micrograms/mL
MIC K. pneumoniae NCTC 13438 ([1]; 1:1 (wt:wt) combination with Rifampicin, MIC = total drug concentration, strain NCTC 13438): 0.25 micrograms/mL
MIC K. pneumoniae ATCC 4352 [1, 9]: ≤0.06 micrograms/mL
MIC K. pneumoniae CCUG 59348 [1, 10]: >32 micrograms/mL
MIC K. pneumoniae NCTC 13442 [1, 10]: 1 micrograms/mL
MIC K. pneumoniae CCUG 59348 [1, 11]: >32 micrograms/mL
MIC K. pneumoniae NCTC 13442 [1, 11]: 16 micrograms/mL
MIC K. pneumoniae CCUG 59348 [1, 12]: >32 microgram/mL
MIC K. pneumoniae CCUG 59626 [1, 12]: 0.25 microgram/mL
MIC K. pneumoniae NCTC 13442 [1, 12]: 32 microgram/mL
MIC K. pneumoniae ATCC BAA-1706 ([1]; K. pneumoniae ATCC BAA-1706, 1:1 combination with Meropenem, total drug concentration): 4 micrograms/mL
MIC K. pneumoniae CCUG 59348 ([1]; K. pneumoniae CCUG 59348, 1:1 combination with Meropenem, total drug concentration): >32 micrograms/mL
MIC K. pneumoniae NCTC 13442 ([1]; K. pneumoniae NCTC 13442, 1:1 combination with Meropenem, total drug concentration): 16 micrograms/mL
MIC A. baumannii ATCC BAA-747 ([2]; 1:1 (wt:wt) combination with Rifampicin, MIC = total drug concentration, strain ATCC BAA-747): 0.125 micrograms/mL
MIC A. baumannii CCUG57249 ([2]; 1:1 (wt:wt) combination with Rifampicin, MIC = total drug concentration, strain CCUG57249): <0.06 micrograms/mL
MIC A. baumannii NCTC 13423 ([2]; 1:1 (wt:wt) combination with Rifampicin, MIC = total drug concentration, strain NCTC 13423): ≤0.06 micrograms/mL
MIC A. baumannii NCTC 13424 ([2]; 1:1 (wt:wt) combination with Rifampicin, MIC = total drug concentration, strain NCTC 13424): <0.06 micrograms/mL
MIC A. baumannii NCTC 13424 [2, 9]: 0.5 micrograms/mL
MIC E. coli ATCC25922 ([3]; 1:1 (wt:wt) combination with Rifampicin, MIC = total drug concentration, strain ATCC25922): ≤0.06 micrograms/mL
MIC E. coli NCTC9001 ([3]; 1:1 (wt:wt) combination with Rifampicin, MIC = total drug concentration, strain NCTC9001): 0.125 micrograms/mL
MIC E. coli ATCC25922 [3, 10]: ≤0.06 micrograms/mL
MIC E. coli CCUG 59342 [3, 10]: 0.5 micrograms/mL
MIC E. coli NCTC9001 [3, 10]: ≤0.06 micrograms/mL
MIC E. coli NCTC9001 [3, 11]: 16 micrograms/mL
MIC E. coli NCTC9001 [3, 12]: 16 microgram/mL
MIC E. coli NCTC9001 ([3]; E. coli NCTC9001, 1:1 combination with Meropenem, total drug concentration): 0.25 micrograms/mL
MIC P. aeruginosa ATCC 27853 ([4]; 1:1 (wt:wt) combination with Rifampicin, MIC = total drug concentration, strain ATCC 27853): 0.125 micrograms/mL
MIC P. aeruginosa ATCC CRM-9027 ([4]; 1:1 (wt:wt) combination with Rifampicin, MIC = total drug concentration, strain ATCC CRM-9027): 0.125 micrograms/mL
MIC P. aeruginosa ATCC-47 ([4]; 1:1 (wt:wt) combination with Rifampicin, MIC = total drug concentration, strain ATCC-47): 0.125 micrograms/mL
MIC P. aeruginosa CCUG 59626 ([4]; 1:1 (wt:wt) combination with Rifampicin, MIC = total drug concentration, strain CCUG 59626): 0.125 micrograms/mL
MIC P. aeruginosa ATCC 27853 [4, 9]: ≤0.06 micrograms/mL
MIC P. aeruginosa CCUG 59626 [4, 9]: 0.5 micrograms/mL
MIC P. aeruginosa CCUG 59626 [4, 11]: 0.25 micrograms/mL
MIC P. aeruginosa CCUG 59626 ([4]; P. aeruginosa CCUG 59626, 1:1 combination with Meropenem, total drug concentration): 0.5 micrograms/mL
MIC K. pneumoniae CCUG 59348 ([5]; K. pneumoniae CCUG 59348, second agent none): >32 micrograms/mL
MIC K. pneumoniae NCTC 13442 ([5]; K. pneumoniae NCTC 13442, second agent none): >32 micrograms/mL
MIC K. pneumoniae CCUG 59348 ([5]; Second Agent none (Table 7A)): >32 microgram/mL
MIC K. pneumoniae CCUG 59626 ([5]; Second Agent none (Table 7A)): 0.25 microgram/mL
MIC K. pneumoniae NCTC 13442 ([5]; Second Agent none (Table 7A)): >32 microgram/mL
MIC K. pneumoniae CCUG 59348 ([5]; Second Agent none (Table 7B)): >32 micrograms/mL
MIC K. pneumoniae NCTC 13442 ([5]; Second Agent none (Table 7B)): >32 micrograms/mL
MIC K. pneumoniae ATCC 4352 [5, 13]: 0.125 micrograms/mL
MIC K. pneumoniae CCUG 59348 ([5]; Second Agent none (Table 7C)): >32 micrograms/mL
MIC K. pneumoniae NCTC 13442 ([5]; Second Agent none (Table 7C)): >32 micrograms/mL
MIC K. pneumoniae ATCC 4352 ([5]; in the absence of Rifampicin, strain ATCC 4352): 0.125 micrograms/mL
MIC K. pneumoniae ATCC-BAA2146 ([5]; in the absence of Rifampicin, strain ATCC-BAA2146): 8 micrograms/mL
MIC K. pneumoniae CCUG-59348 ([5]; in the absence of Rifampicin, strain CCUG-59348): >32 micrograms/mL
MIC K. pneumoniae NCTC-13438 ([5]; in the absence of Rifampicin, strain NCTC-13438): 32 micrograms/mL
MIC A. baumannii NCTC 13424 [6]: 4 micrograms/mL
MIC E. coli CCUG 59342 ([7]; Second Agent none (Table 7B)): 0.25 micrograms/mL
MIC E. coli NCTC9001 ([7]; Second Agent none (Table 7B)): 16 micrograms/mL
MIC E. coli ATCC25922 ([7]; in the absence of Rifampicin, strain ATCC25922): 2 micrograms/mL
MIC E. coli NCTC9001 ([7]; in the absence of Rifampicin, strain NCTC9001): 16 micrograms/mL
MIC P. aeruginosa CCUG 59626 ([8]; P. aeruginosa CCUG 59626, second agent none): 0.25 micrograms/mL
MIC P. aeruginosa ATCC 27853 [8, 13]: 0.125 micrograms/mL
MIC P. aeruginosa CCUG 59626 [8, 13]: 0.25 micrograms/mL
MIC P. aeruginosa CCUG 59626 ([8]; Second Agent none (Table 7C)): 0.25 micrograms/mL
MIC P. aeruginosa ATCC 27853 ([8]; in the absence of Rifampicin, strain ATCC27853): 0.125 micrograms/mL
MIC P. aeruginosa CCUG 59626 ([8]; in the absence of Rifampicin, strain CCUG 59626): 0.25 micrograms/mL
Structure (SMILES): CC(C)C[C@@H]1NC(=O)[C@@H](Cc2ccccc2)NC(=O)[C@H](CCN)NC(=O)[C@@H](NC(=O)[C@H](CCN)NC(=O)[C@@H](NC(=O)[C@H]2CC[C@H](N)CC2)[C@@H](C)O)CCNC(=O)[C@H]([C@@H](C)O)NC(=O)[C@H](CCN)NC(=O)[C@H](CCN)NC1=O [Example 17, Trans-4-aminocyclohexane-carbonyl polymyxin B nonapeptide] (H-[Achc(trans-4)]T[Dab][Dab][Dab][dF]L[Dab][Dab]T; lactam 4-C)
